According to the NIST ThermoML archive (doi:10.1016/j.jct.2016.07.011):
Numbers after ± are expanded uncertainties.

Conditions: Liquid; for vapor or sublimation pressure: Ebulliometric method (Recirculating still); for mass density / viscosity: 101.33 kPa; for mass density: Vibrating tube method; for viscosity: Falling or rolling sphere viscometry

Row | Structure (SMILES) | mass density (293.15 K) | viscosity (295.65 K) | viscosity (300.15 K) | mass density (301.55 K) | viscosity (302.15 K) | viscosity (304.15 K) | viscosity (306.15 K) | mass density (306.15 K) | viscosity (307.65 K) | mass density (309.05 K) | viscosity (309.15 K) | viscosity (311.65 K) | mass density (312.65 K) | viscosity (313.15 K) | mass density (316.15 K) | viscosity (318.15 K) | mass density (319.35 K) | viscosity (323.15 K) | mass density (323.25 K) | mass density (327.05 K) | also measured
1 | CO [methanol] | – | – | – | – | – | – | – | – | – | – | – | – | – | – | – | – | – | – | – | – | vapor or sublimation pressure (337.45 K): 101.3 ± 10 kPa
2 | OCC(F)(F)C(F)(F)C(F)(F)C(F)F [2,2,3,3,4,4,5,5-octafluoro-1-pentanol] | 1674.2 ± 2 kg/m3 | 13.11 ± 0.18 mPa·s | 10.64 ± 0.17 mPa·s | 1667 ± 2 kg/m3 | 9.897 ± 0.17 mPa·s | 8.739 ± 0.16 mPa·s | 8.04 ± 0.16 mPa·s | 1659 ± 2 kg/m3 | 7.416 ± 0.15 mPa·s | 1655.2 ± 2 kg/m3 | 7.072 ± 0.15 mPa·s | 6.29 ± 0.15 mPa·s | 1649.2 ± 2 kg/m3 | 5.94 ± 0.15 mPa·s | 1643 ± 2 kg/m3 | 4.822 ± 0.15 mPa·s | 1636.4 ± 2 kg/m3 | 3.855 ± 0.14 mPa·s | 1630.4 ± 2 kg/m3 | 1623.2 ± 2 kg/m3 | viscosity (297.55 K): 12.16 ± 0.18 mPa·s; viscosity (328.15 K): 3.298 ± 0.14 mPa·s; mass density (330.65 K): 1617.8 ± 2 kg/m3; viscosity (333.15 K): 2.782 ± 0.14 mPa·s; mass density (334.35 K): 1609.6 ± 2 kg/m3; mass density (338.25 K): 1603.8 ± 2 kg/m3; mass density (342.25 K): 1596 ± 2 kg/m3; vapor or sublimation pressure (413.25 K): 101.3 ± 10 kPa; vapor or sublimation pressure (413.57 K): 101.3 ± 10 kPa
3 | OCC(F)(F)C(F)F [2,2,3,3-tetrafluoro-1-propanol] | 1493.2 ± 2 kg/m3 | 5.029 ± 0.15 mPa·s | 4.274 ± 0.14 mPa·s | 1482.8 ± 2 kg/m3 | 3.794 ± 0.14 mPa·s | 3.595 ± 0.14 mPa·s | 3.26 ± 0.14 mPa·s | 1474.2 ± 2 kg/m3 | 3.067 ± 0.14 mPa·s | 1468.6 ± 2 kg/m3 | 2.954 ± 0.14 mPa·s | 2.703 ± 0.14 mPa·s | 1460.2 ± 2 kg/m3 | 2.568 ± 0.14 mPa·s | 1454.2 ± 2 kg/m3 | 2.153 ± 0.14 mPa·s | 1447.6 ± 2 kg/m3 | 1.848 ± 0.14 mPa·s | 1441.8 ± 2 kg/m3 | 1434 ± 2 kg/m3 | viscosity (298.65 K): 4.489 ± 0.14 mPa·s; viscosity (328.15 K): 1.623 ± 0.14 mPa·s; mass density (330.65 K): 1427.4 ± 2 kg/m3; viscosity (333.15 K): 1.408 ± 0.14 mPa·s; mass density (334.35 K): 1416.8 ± 2 kg/m3; mass density (338.25 K): 1409 ± 2 kg/m3; mass density (342.25 K): 1401 ± 2 kg/m3; vapor or sublimation pressure (382.28 K): 101.3 ± 10 kPa
